According to patent US20040171659A1, “Methods for treating diabetes” (priority 2002, published 2004):

Assays:
monocyte migration = details: Chen 2001; cited from earlier work
rat insulinoma cells = details: cited from earlier work
p38 MAPK = biological target: T1, p38 MAPK (Homo sapiens, UniProt Q16539); assay: phosphorylation assay of p38 MAPK activity (see Kumar); type: biochemical; details: assay similar to the phosphorylation assay (Kumar); read-out: p38 MAPK activity, relative IC50 value
T1 construct: made in house; host or cells: cells (e.g., HeLa) transfected with kinase DNA, stimulated, kinase immunoprecipitated from lysate
T1 sequence (Q16539 whole entry): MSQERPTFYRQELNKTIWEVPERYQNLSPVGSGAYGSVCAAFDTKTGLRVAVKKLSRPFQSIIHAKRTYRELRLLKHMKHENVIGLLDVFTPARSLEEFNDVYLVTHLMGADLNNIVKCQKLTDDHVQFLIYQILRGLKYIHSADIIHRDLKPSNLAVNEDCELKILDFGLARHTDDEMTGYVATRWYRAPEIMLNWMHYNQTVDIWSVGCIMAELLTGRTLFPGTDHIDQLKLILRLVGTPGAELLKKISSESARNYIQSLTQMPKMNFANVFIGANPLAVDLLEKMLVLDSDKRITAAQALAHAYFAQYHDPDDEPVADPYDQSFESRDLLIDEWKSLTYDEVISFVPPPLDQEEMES
Experimental: After immunoprecipitation of cell lysates, equal aliquots of immune complexes of the kinases are pre-incubated for an adequate time with a specific concentration of the potential inhibitor followed by addition of kinase substrate buffer mix containing labeled ATP and GST-ATF2 or MBP. […] Phosphorylated substrate is resolved through SDS-PAGE and visualized and quantitated in a phosphorimager. […] Res. Commun.

SMILES: C[S+]([O-])c1ccc(-c2nc(-c3ccncc3)c(-c3ccc(F)cc3)[nH]2)cc1 (stereo not drawn) [SB203580]
- Monocyte migration (monocyte migration): blockade
- p38-dependent enhancement of cytokines expression by hsp70 (rat insulinoma cells): blocks this activity

SMILES: COc1cc2c(cc1C(=O)N1CC(C)N(Cc3ccc(F)cc3)CC1C)c(C(=O)C(=O)N(C)C)cn2C (stereo not drawn) [compound 15]
- IC50 (p38 MAPK): < 5 nM
